Source: ChEMBL document CHEMBL3045802, “Synthesis and in vitro antitumor activity of new quinoline, pyrimido[4,5-b]quinoline, [1,2,3]triazino[4,5-b]quinoline, and [1,2,4]triazolo[2,3:3,4]pyrimido[6,5-b]quinoline analogs” (2013)

Tests used:
Format in all cases: functional
SF-539 = assay: Cytotoxicity against Homo sapiens (human) SF539 cells assessed as growth inhibition at 10 uM after 48 hr by coulter counter analysis; conditions: SF-539, 48 h, read-out: GI
[1] = Cytotoxicity against Homo sapiens (human) NCI-ADR-RES cells assessed as growth inhibition at 10 uM after 48 hr by coulter counter analysis; conditions: read-out: GI
SR = assay: Cytotoxicity against Homo sapiens (human) SR cells assessed as growth inhibition at 10 uM after 48 hr by coulter counter analysis; conditions: read-out: GI
MCF7 = assay: Cytotoxicity against Homo sapiens (human) MCF7 cells assessed as growth inhibition at 10 uM after 48 hr by coulter counter analysis; conditions: MCF7, 48 h, read-out: GI
OVCAR-5 = assay: Cytotoxicity against Homo sapiens (human) OVCAR5 cells assessed as growth inhibition at 10 uM after 48 hr by coulter counter analysis; conditions: OVCAR-5, 48 h, read-out: GI
HCC 2998 = assay: Cytotoxicity against Homo sapiens (human) HCC2998 cells assessed as growth inhibition at 10 uM after 48 hr by coulter counter analysis; conditions: HCC 2998, 48 h, read-out: GI
SK-MEL-28 = assay: Cytotoxicity against Homo sapiens (human) SK-MEL-28 cells assessed as growth inhibition at 10 uM after 48 hr by coulter counter analysis; conditions: SK-MEL-28, 48 h, read-out: GI
M14 = assay: Cytotoxicity against Homo sapiens (human) M14 cells assessed as growth inhibition at 10 uM after 48 hr by coulter counter analysis; conditions: M14, 48 h, read-out: GI
MDA-MB-435 = assay: Cytotoxicity against Homo sapiens (human) MDA-MB-435 cells assessed as growth inhibition at 10 uM after 48 hr by coulter counter analysis; conditions: MDA-MB-435, 48 h, read-out: GI
HT-29 = assay: Cytotoxicity against Homo sapiens (human) HT-29 cells assessed as growth inhibition at 10 uM after 48 hr by coulter counter analysis; conditions: HT-29, 48 h, read-out: GI
OVCAR-4 = assay: Cytotoxicity against Homo sapiens (human) OVCAR4 cells assessed as growth inhibition at 10 uM after 48 hr by coulter counter analysis; conditions: OVCAR-4, 48 h, read-out: GI
NCI-H226 = assay: Cytotoxicity against Homo sapiens (human) NCI-H226 cells assessed as growth inhibition at 10 uM after 48 hr by coulter counter analysis; conditions: NCI-H226, 48 h, read-out: GI
HCT-15 = assay: Cytotoxicity against Homo sapiens (human) HCT15 cells assessed as growth inhibition at 10 uM after 48 hr by coulter counter analysis; conditions: HCT-15, 48 h, read-out: GI
PC-3 = assay: Cytotoxicity against Homo sapiens (human) PC3 cells assessed as growth inhibition at 10 uM after 48 hr by coulter counter analysis; conditions: PC-3, 48 h, read-out: GI
HOP-92 = assay: Cytotoxicity against Homo sapiens (human) HOP92 cells assessed as growth inhibition at 10 uM after 48 hr by coulter counter analysis; conditions: HOP-92, 48 h, read-out: GI
UO-31 = assay: Cytotoxicity against Homo sapiens (human) UO31 cells assessed as growth inhibition at 10 uM after 48 hr by coulter counter analysis; conditions: UO-31, 48 h, read-out: GI
SNB-19 = assay: Cytotoxicity against Homo sapiens (human) SNB19 cells assessed as growth inhibition at 10 uM after 48 hr by coulter counter analysis; conditions: SNB-19, 48 h, read-out: GI
COLO 205 = assay: Cytotoxicity against Homo sapiens (human) COLO205 cells assessed as growth inhibition at 10 uM after 48 hr by coulter counter analysis; conditions: COLO 205, 48 h, read-out: GI
IGROV-1 = assay: Cytotoxicity against Homo sapiens (human) IGROV1 cells assessed as growth inhibition at 10 uM after 48 hr by coulter counter analysis; conditions: IGROV-1, 48 h, read-out: GI
786-0 = assay: Cytotoxicity against Homo sapiens (human) 786-0 cells assessed as growth inhibition at 10 uM after 48 hr by coulter counter analysis; conditions: 786-0, 48 h, read-out: GI
OVCAR-8 = assay: Cytotoxicity against Homo sapiens (human) OVCAR8 cells assessed as growth inhibition at 10 uM after 48 hr by coulter counter analysis; conditions: OVCAR-8, 48 h, read-out: GI
HL-60(TB) = assay: Cytotoxicity against Homo sapiens (human) HL-60(TB) cells assessed as growth inhibition at 10 uM after 48 hr by coulter counter analysis; conditions: HL-60, 48 h, read-out: GI
OVCAR-3 = assay: Cytotoxicity against Homo sapiens (human) OVCAR3 cells assessed as growth inhibition at 10 uM after 48 hr by coulter counter analysis; conditions: OVCAR-3, 48 h, read-out: GI
SF-268 = assay: Cytotoxicity against Homo sapiens (human) SF268 cells assessed as growth inhibition at 10 uM after 48 hr by coulter counter analysis; conditions: SF-268, 48 h, read-out: GI
T47D = assay: Cytotoxicity against Homo sapiens (human) T47D cells assessed as growth inhibition at 10 uM after 48 hr by coulter counter analysis; conditions: read-out: GI
HOP-62 = assay: Cytotoxicity against Homo sapiens (human) HOP62 cells assessed as growth inhibition at 10 uM after 48 hr by coulter counter analysis; conditions: HOP-62, 48 h, read-out: GI
SF-295 = assay: Cytotoxicity against Homo sapiens (human) SF295 cells assessed as growth inhibition at 10 uM after 48 hr by coulter counter analysis; conditions: SF-295, 48 h, read-out: GI
UACC-257 = assay: Cytotoxicity against Homo sapiens (human) UACC257 cells assessed as growth inhibition at 10 uM after 48 hr by coulter counter analysis; conditions: UACC-257, 48 h, read-out: GI
CAKI-1 = assay: Cytotoxicity against Homo sapiens (human) Caki1 cells assessed as growth inhibition at 10 uM after 48 hr by coulter counter analysis; conditions: CAKI-1, 48 h, read-out: GI
RXF 393 = assay: Cytotoxicity against Homo sapiens (human) RXF393 cells assessed as growth inhibition at 10 uM after 48 hr by coulter counter analysis; conditions: RXF 393, 48 h, read-out: GI
A498 = assay: Cytotoxicity against Homo sapiens (human) A498 cells assessed as growth inhibition at 10 uM after 48 hr by coulter counter analysis; conditions: A498, 48 h, read-out: GI
SK-MEL-2 = assay: Cytotoxicity against Homo sapiens (human) SK-MEL-2 cells assessed as growth inhibition at 10 uM after 48 hr by coulter counter analysis; conditions: SK-MEL-2, 48 h, read-out: GI
RPMI-8226 = assay: Cytotoxicity against Homo sapiens (human) RPMI8226 cells assessed as growth inhibition at 10 uM after 48 hr by coulter counter analysis; conditions: RPMI-8226, 48 h, read-out: GI

| Structure (SMILES) | inhibition of growth at 10 µM (SF-539) [%] | inhibition of growth at 10 µM [1] [%] | inhibition of growth at 10 µM (SR) [%] | inhibition of growth at 10 µM (MCF7) [%] | inhibition of growth at 10 µM (OVCAR-5) [%] | inhibition of growth at 10 µM (HCC 2998) [%] | inhibition of growth at 10 µM (SK-MEL-28) [%] | inhibition of growth at 10 µM (M14) [%] | inhibition of growth at 10 µM (MDA-MB-435) [%] | inhibition of growth at 10 µM (HT-29) [%] | inhibition of growth at 10 µM (OVCAR-4) [%] | inhibition of growth at 10 µM (NCI-H226) [%] | inhibition of growth at 10 µM (HCT-15) [%] | inhibition of growth at 10 µM (PC-3) [%] | inhibition of growth at 10 µM (HOP-92) [%] | inhibition of growth at 10 µM (UO-31) [%] | inhibition of growth at 10 µM (SNB-19) [%] | inhibition of growth at 10 µM (COLO 205) [%] | inhibition of growth at 10 µM (IGROV-1) [%] | inhibition of growth at 10 µM (786-0) [%] | further results |
| --- | --- | --- | --- | --- | --- | --- | --- | --- | --- | --- | --- | --- | --- | --- | --- | --- | --- | --- | --- | --- | --- |
| CN(C)c1ccc(-c2nc3c(c(=O)[nH]2)C(c2ccc(Cl)cc2)C2=C(CCCC2)N3)cc1 (centres undefined) | < 10 | < 10 | < 10 | < 10 | < 10 | < 10 | < 10 | < 10 | < 10 | < 10 | < 10 | < 10 | < 10 | < 10 | 35.9 | 47.4 | < 10 | 10.2 | < 10 | < 10 | inhibition of growth at 10 µM (OVCAR-8): < 10%; inhibition of growth at 10 µM (HL-60(TB)): < 10%; inhibition of growth at 10 µM (OVCAR-3): 11.1%; inhibition of growth at 10 µM (SF-268): < 10%; inhibition of growth at 10 µM (T47D): 17.6%; inhibition of growth at 10 µM (HOP-62): 12.8%; inhibition of growth at 10 µM (SF-295): < 10%; inhibition of growth at 10 µM (UACC-257): < 10%; inhibition of growth at 10 µM (CAKI-1): < 10%; inhibition of growth at 10 µM (RXF 393): < 10%; inhibition of growth at 10 µM (A498): < 10%; inhibition of growth at 10 µM (SK-MEL-2): 10%; inhibition of growth at 10 µM (RPMI-8226): < 10% |
| COc1ccc(-c2nc3c(c(=O)[nH]2)C(c2ccc(Cl)cc2)C2=C(CCCC2)N3)cc1OC (centres undefined) | < 10 | < 10 | < 10 | 13.5 | < 10 | < 10 | < 10 | < 10 | < 10 | < 10 | < 10 | 11 | < 10 | 12.5 | < 10 | 41.7 | < 10 | < 10 | < 10 | < 10 | inhibition of growth at 10 µM (OVCAR-8): < 10%; inhibition of growth at 10 µM (HL-60(TB)): < 10%; inhibition of growth at 10 µM (OVCAR-3): < 10%; inhibition of growth at 10 µM (SF-268): < 10%; inhibition of growth at 10 µM (T47D): < 10%; inhibition of growth at 10 µM (HOP-62): 10.2%; inhibition of growth at 10 µM (SF-295): < 10%; inhibition of growth at 10 µM (UACC-257): < 10%; inhibition of growth at 10 µM (CAKI-1): < 10%; inhibition of growth at 10 µM (RXF 393): < 10%; inhibition of growth at 10 µM (A498): < 10%; inhibition of growth at 10 µM (SK-MEL-2): < 10%; inhibition of growth at 10 µM (RPMI-8226): < 10% |
| COc1ccc(C2C3=C(CCCC3)Nc3nc(-c4ccccc4)[nH]c(=O)c32)cc1OC (centres undefined) | < 10 | < 10 | < 10 | < 10 | 12.6 | < 10 | < 10 | < 10 | < 10 | < 10 | < 10 | 15.9 | < 10 | 13.5 | 13.3 | 48.6 | 10.7 | 15.9 | < 10 | < 10 | inhibition of growth at 10 µM (OVCAR-8): < 10%; inhibition of growth at 10 µM (HL-60(TB)): < 10%; inhibition of growth at 10 µM (OVCAR-3): < 10%; inhibition of growth at 10 µM (SF-268): < 10%; inhibition of growth at 10 µM (T47D): 21.1%; inhibition of growth at 10 µM (HOP-62): 15.7%; inhibition of growth at 10 µM (SF-295): < 10%; inhibition of growth at 10 µM (UACC-257): < 10%; inhibition of growth at 10 µM (CAKI-1): 23.4%; inhibition of growth at 10 µM (RXF 393): 14.4%; inhibition of growth at 10 µM (A498): 13.2%; inhibition of growth at 10 µM (SK-MEL-2): < 10%; inhibition of growth at 10 µM (RPMI-8226): < 10% |
